The values below come from paper PMC4712933, “Development of Follicle-Stimulating Hormone Receptor Binding Probes to Image Ovarian Xenografts” (Journal of biotechnology & biomaterials, 2015).

The target in one data set is T1, FSHR on OVCAR-3 cells (Homo sapiens, UniProt P23945).
T1 construct: endogenous in cells; host or cells: OVCAR-3 cells
T1 sequence (P23945 18-695): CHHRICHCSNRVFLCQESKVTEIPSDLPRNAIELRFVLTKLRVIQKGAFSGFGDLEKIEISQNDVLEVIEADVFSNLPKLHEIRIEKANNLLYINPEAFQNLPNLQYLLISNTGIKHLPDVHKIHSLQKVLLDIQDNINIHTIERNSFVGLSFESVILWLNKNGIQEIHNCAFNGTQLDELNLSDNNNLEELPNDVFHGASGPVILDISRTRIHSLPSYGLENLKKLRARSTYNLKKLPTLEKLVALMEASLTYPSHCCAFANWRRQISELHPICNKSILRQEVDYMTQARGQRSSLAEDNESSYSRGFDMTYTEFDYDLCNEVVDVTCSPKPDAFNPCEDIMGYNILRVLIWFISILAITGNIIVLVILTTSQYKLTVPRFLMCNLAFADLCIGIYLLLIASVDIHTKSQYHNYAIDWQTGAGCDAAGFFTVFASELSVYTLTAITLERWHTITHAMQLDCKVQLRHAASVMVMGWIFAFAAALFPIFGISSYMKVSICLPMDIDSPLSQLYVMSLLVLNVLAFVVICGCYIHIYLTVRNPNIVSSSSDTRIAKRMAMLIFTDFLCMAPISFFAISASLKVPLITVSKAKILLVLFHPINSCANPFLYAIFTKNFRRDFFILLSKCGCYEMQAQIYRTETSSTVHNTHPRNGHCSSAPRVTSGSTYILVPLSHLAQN
In words: Flow cytometry binding of BI-10^FAM to OVCAR-3 cells. On the procedure:
OVCAR-3 cells (generously provided by Dr. Mellisa Fishell of Indiana University School of Medicine) were chosen for in vitro binding experiment due to its high level of FSHR expression. For the first 2–3 passages, the cells were plated in […] flasks using RPMI medium (supplemented with 5 μM Insulin (Sigma), 20% FBS (Hyclone), Sodium private (GIBCO), and Pen Strep (GIBCO)), and placed in an incubator (5% CO2 at a temperature of 37°C incubator) to maintain viability. For peptide binding experiments, cells were plated in six-well plates with the medium and environment conditions as previously described. Medium was changed every 2–3 days until cells reached more than 90% confluency. […] These samples were ready for imaging within the flow cytometer. […]
Each sample of OVCAR-3 cells was placed within the flow cytometer (Beckman Coulter FC500) and the FITC fluorescent intensity from the BI-10^FAM peptide bound to the OVCAR-3 cells were acquired. A TOPO-3 dye (Sigma) in 1 nM concentration was used to acquire the fluorescence from only viable cells in a two-color flow cytometry assay. Ten thousand cells were counted and the fluorescence measured in each sample. […] The EC50 value (binding affinity) and receptor saturation intensity were calculated using a nonlinear regression analysis using GraphPad Prism fitting algorithm (GraphPad Software, Inc.). […]

The next data set has as its system FSHR-rich Sertoli cells. As to conditions: FSHR-rich Sertoli cells from Bovine Calf testes; ref 29 (Lee et al); read-out: EC50, radio-ligand binding assay; cited from earlier work.
The subject of data set [1] is FSHR. As to conditions: cited from earlier work. The source says: FSHR belongs to G protein-coupled receptor and consists of a transmembrane and an extracellular domain, where the former is characterized by a seven helical repeats and the latter by multiple leucine-rich repeats. FSHR is expressed on normal ovarian epithelium, e.g., the fallopian tubal epithelium, and shares about 70% transmembrane domain sequence with other G protein-coupled receptors, such as L ...

Data set [2] concerns FSHR. As to conditions: low doses; cited from earlier work. The source says: Their small effective hydrodynamic diameter, high washout rates, and rapid renal filtration are highly valued for in vivo imaging, where an optimal tumor-to-reference tissue ratio (TRR) can be quickly reached. This was de ...

Where a SMILES comes first, the peptide text is derived from it. The star is where a group is joined. 5FAM = O=C1OC2(c3ccc(O)cc3Oc3cc(O)ccc32)c2ccc(C(=O)*)cc21

Turning to TENLEPNGEGNH2 [BI-10], the “binding to FSHR, in words” value on FSHR on OVCAR-3 cells (BI-10 binding curves) is “highly specific but low in affinity”; with FSHR [1] (functional radio ligand receptor assay, synthetic BI-10), “specifically binds to FSHR”. Moreover, the 50% effective concentration (EC50) with FSHR-rich Sertoli cells was around 300 µM. In addition, in the data set with FSHR [1] (synthetic BI-10 peptide, high concentrations), the “inhibition of FSH-stimulated estradiol and cAMP synthesis, in words” value was “inhibits FSH-stimulated estradiol and secondary messenger cAMP synthesis at high concentrations”.

Regarding `CC(C)C[C@H](NC(=O)[C@H](CC(N)=O)NC(=O)[C@H](CCC(=O)O)NC(=O)[C@@H](NC(=O)c1ccc2c(c1)C(=O)OC21c2ccc(O)cc2Oc2cc(O)ccc21)[C@@H](C)O)C(=O)N[C@@H](CCC(=O)O)C(=O)N1CCC[C@H]1C(=O)N[C@@H](CC(N)=O)C(=O)NCC(=O)N[C@@H](CCC(=O)O)C(=O)NCC(N)=O` [BI-10^FAM] (5FAM-TENLEPNGEG-NH2), the EC50 on FSHR on OVCAR-3 cells (OVCAR-3 cells, BI-10^FAM, 30 min incubation, 37°C incubator, 1.0-500 μM, wash with PBS, 5 mM EDTA detachment, median FITC fluorescence, flow cytometry, TOPO-3 viable gate, 10,000 cells, nonlinear regression, R^2=0.93, average of three measurements (Figure 1: n=5), read-out: EC50 (binding affinity, dose response curve)) amounted to 160 µM. In addition, in the data set on FSHR [2], the physiologic effects result was “negligible physiologic effects when used in low doses”.

For orientation: EC50 means the concentration needed to bring the measured effect to its halfway point.
